Measured values: patent US20240360194A1, “New Peptides as Potent and Selective GIP Receptor Agonists” (Sanofi, priority 2021, published 2024)
In brackets after ≈: the same amount, converted by molar mass. Numbered stars: 1 amine (or outer) side, 2 acyl side, 3 side chain; on linkers, the order of the positions; unused ones are H or OH. Square brackets hold non-standard residues; d marks the D form. Side chains are listed from the residue outwards. Ends that are not written are not given here. Peptide text beside a SMILES is read from it. * marks the point of attachment. ξ: configuration not given here. C18 diacid = O=C(O)CCCCCCCCCCCCCCCCC(=O)*; γGlu = O=C(O)[C@H](CCC(=O)[*:2])N[*:1]; tBuAla = CC(C)(C)C[C@H](N)C(=O)O; ξIva = CCC(C)(N)C(=O)O; AEEA = NCCOCCOCC(=O)O; Aib = CC(C)(N)C(=O)O

T1: human GIP receptor (hGIPR) (Homo sapiens, UniProt P48546)
T1 sequence (P48546 22-466): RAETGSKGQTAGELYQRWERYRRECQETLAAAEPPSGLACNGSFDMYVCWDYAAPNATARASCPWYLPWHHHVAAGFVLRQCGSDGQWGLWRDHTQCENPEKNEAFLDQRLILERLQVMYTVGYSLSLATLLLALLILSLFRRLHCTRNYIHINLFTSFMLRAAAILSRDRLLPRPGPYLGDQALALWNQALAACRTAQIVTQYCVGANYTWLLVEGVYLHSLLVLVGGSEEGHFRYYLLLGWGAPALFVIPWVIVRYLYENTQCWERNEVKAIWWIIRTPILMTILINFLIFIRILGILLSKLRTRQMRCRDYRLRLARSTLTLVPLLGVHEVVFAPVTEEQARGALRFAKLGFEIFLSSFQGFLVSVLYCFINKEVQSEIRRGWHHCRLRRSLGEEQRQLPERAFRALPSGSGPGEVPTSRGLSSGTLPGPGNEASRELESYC

T2: human GIP receptor (Homo sapiens, UniProt P48546)
T2 construct: human adipocytes endogenously expressing the human GIP receptor; host or cells: human preadipocytes (Lonza) differentiated to adipocytes
T2 sequence (P48546 22-466): T1 sequence (P48546 22-466)

T3: human GIP receptor (human, UniProt P48546 22-466)
T3 sequence (looked up): T1 sequence (P48546 22-466)

B1: SEQ ID NO: 33 (peptide)
peptide: Y[Aib]EGTFISDLSI[Aib]K([AEEA-AEEA-γGlu-C18 diacid])DRIHQEEFIEWL[tBuAla]AQGPSSGAPPPS-NH2
modifications: N-terminus assumed
SMILES: CC[C@H](C)[C@H](NC(=O)[C@H](Cc1ccccc1)NC(=O)[C@H](CCC(=O)O)NC(=O)[C@H](CCC(=O)O)NC(=O)[C@H](CCC(N)=O)NC(=O)[C@H](Cc1c[nH]cn1)NC(=O)[C@@H](NC(=O)[C@H](CCCNC(=N)N)NC(=O)[C@H](CC(=O)O)NC(=O)[C@H](CCCCNC(=O)COCCOCCNC(=O)COCCOCCNC(=O)CC[C@H](NC(=O)CCCCCCCCCCCCCCCCC(=O)O)C(=O)O)NC(=O)C(C)(C)NC(=O)[C@@H](NC(=O)[C@H](CO)NC(=O)[C@H](CC(C)C)NC(=O)[C@H](CC(=O)O)NC(=O)[C@H](CO)NC(=O)[C@@H](NC(=O)[C@H](Cc1ccccc1)NC(=O)[C@@H](NC(=O)CNC(=O)[C@H](CCC(=O)O)NC(=O)C(C)(C)NC(=O)[C@@H](N)Cc1ccc(O)cc1)[C@@H](C)O)[C@@H](C)CC)[C@@H](C)CC)[C@@H](C)CC)C(=O)N[C@@H](CCC(=O)O)C(=O)N[C@@H](Cc1c[nH]c2ccccc12)C(=O)N[C@@H](CC(C)C)C(=O)N[C@@H](CC(C)(C)C)C(=O)N[C@@H](C)C(=O)N[C@@H](CCC(N)=O)C(=O)NCC(=O)N1CCC[C@H]1C(=O)N[C@@H](CO)C(=O)N[C@@H](CO)C(=O)NCC(=O)N[C@@H](C)C(=O)N1CCC[C@H]1C(=O)N1CCC[C@H]1C(=O)N1CCC[C@H]1C(=O)N[C@@H](CO)C(N)=O

Tests used:
[1] = biological target: T1, human GIP receptor (hGIPR); test: Binding assay, displacement of [125I]GIP from HEK-293 membranes over-expressing GIPR (SPA); details: [125I]GIP displacement
Method: (1) Preparation of Membranes from HEK-293 Cells Over-Expressing GIPR or GLP-1R
HEK-293 cells recombinantly over-expressing GIPR or GLP-1R were grown to 50% confluency, washed with warm 1×PBS (Gibco) and detached in HEPES/EDTA-buffer (100 mM HEPES pH 7.5, 5 mM EDTA). Cells were harvested by centrifugation at 4° C. and 3000×g and the pellets were stored at −80° C. until further processing.
After thawing on ice, pellets were resuspended in HEPES/EDTA-buffer and homogenized on ice for 1 min using Ultra-Turray T25. After subsequent sonification the cell debris was removed by centrifugation at 1000×g and 4° C. Supernatants were then ultra-centrifuged at 100000×g and 4° C. under vacuum for 30 min. Pellets were resuspended in HEPES/EDTA/NaCl-buffer (20 mM HEPES, 1 mM EDTA, 150 mM NaCl; add 1 Complete Mini Protease inhibitor cocktail to 10 ml buffer) and protein content was determined via BCA-Protein assay.
(2) Measurement of Binding Activity of Test Compounds to Human GIPR or GLP-1R

[2] = biological target: human GLP-1 receptor (hGLP-1R) (Homo sapiens, UniProt P43220); test: In vitro cellular cAMP assay for GLP-1 receptor efficacy (HEK-293 cell line over-expressing receptor); type: cell-based; details: HEK-293, 0.1% BSA
Chain of human GLP-1 receptor (hGLP-1R) (P43220 24-463): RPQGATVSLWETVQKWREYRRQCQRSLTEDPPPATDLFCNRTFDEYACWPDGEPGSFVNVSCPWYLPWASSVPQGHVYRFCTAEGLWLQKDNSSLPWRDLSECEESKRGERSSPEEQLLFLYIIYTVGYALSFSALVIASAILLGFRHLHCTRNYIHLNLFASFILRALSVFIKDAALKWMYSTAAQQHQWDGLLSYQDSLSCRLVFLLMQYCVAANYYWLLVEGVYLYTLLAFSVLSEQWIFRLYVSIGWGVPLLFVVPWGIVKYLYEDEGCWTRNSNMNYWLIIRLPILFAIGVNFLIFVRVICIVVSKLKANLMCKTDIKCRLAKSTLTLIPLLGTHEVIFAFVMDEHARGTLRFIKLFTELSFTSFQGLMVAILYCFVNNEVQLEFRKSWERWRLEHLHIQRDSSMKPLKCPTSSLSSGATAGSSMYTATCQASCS

[3] = biological target: T2, human GIP receptor; test: In vitro cellular cAMP assay for GIP receptor efficacy (human adipocytes); type: cell-based; details: for Emax: read-out: hGIPR Emax
Method: For this, one vial of human preadipocytes (˜10^6 cells; Lonza) was thawed in a T-75 cell culture dish. The cells were cultivated at 37° C., 5% CO2, 95% humidity in Preadipocyte Growth Medium with Supplement Mix from Promo Cell.
After 3 days, the cells were washed with PBS and 1.5 ml Trypsin, incubated for 4 min, then resuspended in medium, centrifugated for 10 min @ 300 rcf RT, resuspended again and distributed to four T-75 cell culture dishes. Again, the cells were cultivated at 37° C., 5% CO2, 95% humidity.
After 5 days, the cells were washed with PBS and 1.5 ml Trypsin, incubated for 4 min, then resuspended in medium, centrifugated for 10 min @ 300 rcf RT, resuspended again and sawn in T-75 dishes (2.5×10^6 cells per dish) in 15 ml Differentiation medium each.
The differentiation medium had the following composition: DMEM (Gibco), Ham's F10 (Gibco), 15 mM HEPES (Gibco), 3% FCS (PAA), 33 μM biotin (Sigma-Aldrich), 17 μM Pantothenate (Sigma-Aldrich), 0.1 μM human insulin (Sigma-Aldrich), 1 μM dexamethason (Sigma-Aldrich), 0.1 μM PPARgamma agonist (#R2408, Sigma-Aldrich), 0.6×Anti-Anti (#15240, ThermoFisher), 200 μM IBMX (AppliChem), and 0.01 μM L-thyroxine (Sigma-Aldrich).
After 6 days of differentiation, 5000 cells per well were dispensed on a 96-well plate (#CLS3694 from Corning®, Sigma-Aldrich). For measurement of cAMP generation, 25 μL of test compound was added to each well of the 96-well plate, followed by incubation for 30 min at room temperature.
The cAMP generated following test compound stimulation was determined using a kit from Cisbio Corp. based on HTRF (Homogenous Time Resolved Fluorescence). The cAMP assay was performed according to manufacturer's instructions (Cisbio).
The cAMP content of cells was determined using a kit from Cisbio Corp. based on HTRF (Homogenous Time Resolved Fluorescence).
After addition of HTRF reagents diluted in lysis buffer (kit components), the plates were incubated for 1 h, followed by measurement of the fluorescence ratio at 665/620 nm.

[4] = Solubility assessment (UHPLC-UV of supernatant, target 10 mg/ml); type: physicochemical
Method: Prior to the solubility measurement of a peptide batch, its purity was determined through UHPLC/MS.
Therefore, solutions from solid samples were prepared in a buffer system with a concentration of 10 mg/ml compound based on the previously determined % purity: • Solubility buffer system A) 100 mM phosphate buffer pH 7.4 • Solubility buffer system B) 8 mM phosphate buffer pH 7.4, 14 mg/ml propylene glycol, 5.5 mg/ml phenol • Solubility buffer system C) 100 mM phosphate buffer pH 7.4, 2.7 mg/ml m-cresol
UHPLC-UV was performed after 1 h of gentle agitation and storage at 5° C. overnight (24 h) from the supernatant, which was obtained after 15 min of centrifugation at 2500 RCF (relative centrifugal acceleration).
The different UV extinction coefficients of sample and reference peptide were calculated based on the different amino acid sequences and considered in the concentration calculation.
The analytical method used was Analytical UHPLC Method A.
Peptide samples were prepared in solubility buffer system A or C and solubility was assessed as described in Methods.

[5] = biological target: T3, human GIP receptor; test: cell-based or functional assay

Row | Molecule | IC50 [1] [nM] | EC50 [2] [nM] | EC50 ([3]; read-out: hGIPR EC50) [nM] | Emax [3] [%] | Soluble amount ([4]; 24 h, pH 7.4) [mg/mL] | solubility at 24 h ([4]; pH 7.4, Soluble amount) [µg/mL] | solubility ([4]; pH 7.4, Soluble amount) [µg/mL] | EC50 hGIPR 0% HSA (cAMP, HEK-293) [5] [nM] | EC50 hGIPR 0.1% BSA (cAMP, HEK-293) [5] [nM]
1 | CC[C@H](C)[C@H](NC(=O)[C@H](Cc1ccccc1)NC(=O)[C@H](CCC(=O)O)NC(=O)[C@H](CCC(=O)O)NC(=O)[C@H](CCC(N)=O)NC(=O)[C@H](Cc1c[nH]cn1)NC(=O)[C@@H](NC(=O)[C@H](CCCNC(=N)N)NC(=O)[C@H](CC(=O)O)NC(=O)[C@H](CCCCNC(=O)COCCOCCNC(=O)COCCOCCNC(=O)CC[C@H](NC(=O)CCCCCCCCCCCCCCCCC(=O)O)C(=O)O)NC(=O)C(C)(C)NC(=O)[C@@H](NC(=O)[C@H](CO)NC(=O)[C@H](CC(C)C)NC(=O)[C@H](CC(=O)O)NC(=O)[C@H](CO)NC(=O)[C@@H](NC(=O)[C@H](Cc1ccccc1)NC(=O)[C@@H](NC(=O)CNC(=O)[C@H](CCC(=O)O)NC(=O)C(C)(C)NC(=O)[C@@H](N)Cc1ccc(O)cc1)[C@@H](C)O)[C@@H](C)CC)[C@@H](C)CC)[C@@H](C)CC)C(=O)N[C@@H](CCC(=O)O)C(=O)N[C@@H](Cc1c[nH]c2ccccc12)C(=O)N[C@@H](CC(C)C)C(=O)N[C@@H](CC(C)C)C(=O)N[C@@H](C)C(=O)N[C@@H](CCC(N)=O)C(=O)N[C@@H](CCC(=O)O)C(=O)N1CCC[C@H]1C(=O)N[C@@H](CO)C(=O)N[C@@H](CO)C(=O)NCC(=O)N[C@@H](C)C(=O)N1CCC[C@H]1C(=O)N1CCC[C@H]1C(=O)N1CCC[C@H]1C(=O)N[C@@H](CO)C(=O)O [SEQ ID NO: 28, H2N-Y-Aib-E-G-T-F-I-S-D-L-S-I-Aib-K[{AEEA}2-gGlu-C18OH]-DRIHQEEFIEWLLAQEPSSGAPPPS-OH] (H-Y[Aib]EGTFISDLSI[Aib]K([AEEA-AEEA-γGlu-C18 diacid])DRIHQEEFIEWLLAQEPSSGAPPPS-OH) | 0.8 | > 10 | 0.5 | 103 | >9.0 | > 9400 |  |  | 
2 | CC[C@H](C)[C@H](NC(=O)[C@H](Cc1ccccc1)NC(=O)[C@H](CCC(=O)O)NC(=O)[C@H](CCC(=O)O)NC(=O)[C@H](CCC(N)=O)NC(=O)[C@H](Cc1c[nH]cn1)NC(=O)[C@@H](NC(=O)[C@H](CCCNC(=N)N)NC(=O)[C@H](CC(=O)O)NC(=O)[C@H](CCCCNC(=O)COCCOCCNC(=O)COCCOCCNC(=O)CC[C@H](NC(=O)CCCCCCCCCCCCCCCCC(=O)O)C(=O)O)NC(=O)C(C)(C)NC(=O)[C@@H](NC(=O)[C@H](CO)NC(=O)[C@H](CC(C)C)NC(=O)[C@H](CC(=O)O)NC(=O)[C@H](CO)NC(=O)[C@@H](NC(=O)C(C)(CC)NC(=O)[C@@H](NC(=O)CNC(=O)[C@H](CCC(=O)O)NC(=O)C(C)(C)NC(=O)[C@@H](N)Cc1ccc(O)cc1)[C@@H](C)O)[C@@H](C)CC)[C@@H](C)CC)[C@@H](C)CC)C(=O)N[C@@H](CCC(=O)O)C(=O)N[C@@H](Cc1c[nH]c2ccccc12)C(=O)N[C@@H](CC(C)C)C(=O)N[C@@H](CC(C)C)C(=O)N[C@@H](C)C(=O)N[C@@H](CCC(N)=O)C(=O)NCC(=O)N1CCC[C@H]1C(=O)N[C@@H](CO)C(=O)N[C@@H](CO)C(=O)NCC(=O)N[C@@H](C)C(=O)N1CCC[C@H]1C(=O)N1CCC[C@H]1C(=O)N1CCC[C@H]1C(=O)N[C@@H](CO)C(N)=O (stereo partly drawn) [SEQ ID NO: 24, H2N-Y-Aib-E-G-T-Iva-I-S-D-L-S-I-Aib-K[{AEEA}2-gGlu-C18OH]-DRIHQEEFIEWLLAQGPSSGAPPPS-NH2] (H-Y[Aib]EGT[ξIva]ISDLSI[Aib]K([AEEA-AEEA-γGlu-C18 diacid])DRIHQEEFIEWLLAQGPSSGAPPPS-NH2) |  |  |  | 100 |  |  | 7800 (≈ 1570 µM) |  | 
3 | B1 |  |  |  |  |  |  |  | 0.00022 | 0.0644
